# From US7153839B2, “Method of protecting erythricytes, in particular for improvement of blood cytopenia” (Biocell Laboratories, priority 2000, dated 2006)
# Experiments:
# leukotriene C4 = assay: Leukotriene C4 in mouse blood plasma after carrageenan injection; type: in vivo; settings: 320 min after carrageenan; LPS control 226.78
# [1] = test system: carrageenan-induced swelling of leg; assay: Local inflammation (leg swelling) provoked by carrageenan in mice; type: in vivo, BALB-line mice; settings: for % inhibition of swelling: 0.4 mg per mouse (20 mg/kg), 20 mg/kg
# Method: To study the anti-inflammatory action of drugs, we used the model of local inflammation in mice. Inflammation in BALB-line mice was modeled with the help of carrageenan, a classical phlogogenic agent. 30 minutes before the injection, the mice were injected intra-abdominally with drug, which was dissolved in […] of physiological solution (PS). Carrageenan […] produced by Serva Fein Biochemica (Germany) was prepared in the form of a 1% solution in PS. The obtained viscous solution, 40 mcl, was injected subplantally in the left back leg. The right, intact leg was taken as control. 4 hours later after the carrageenan injection, the mice were killed via decapitation, and their back legs were detached from the bodies on the same level, a little higher the ankles. After that, the legs were carefully weighted, with 1 mg accuracy. Obtained results were statistically processed by the MultiFac 2.2. SPSS 8/0 software. The anti-inflammatory effect of the drug was calculated by the formula:
# [formula] • Vk—average increase of volume (mass) of the swollen leg in control mice • Vo—average increase of volume (mass) of the swollen leg in treated mice
# In the first test, mice were divided into 8 groups. The first group consisted of control animals, which were injected intra-abdominally with 2 ml of PS. Also, […] of PS was injected in the left leg. This group was studied to determine the influence of injection on the course of inflammation in a leg. The second group, control with LPS, took […] of PS intra-abdominally and received LPS injections in the left leg. The third group took […] of aspirin dissolved in PS in the concentration 0.4 mg per mouse. In the fourth, fifth and sixth groups, yeast RNA-D was dissolved in PS in respective concentrations 5, 10, and 15 mg in 2 ml of PS per animal. LPS was injected in the left leg to provoke swelling. The seventh and eighth groups were treated respectively by DNA-TC and DNA-EC, which were injected in the concentration 15 mg per mouse, as explained above for RNA-treated groups.
# The right legs were left intact. 4 hours later, the animals were decapitated. […]
# thromboxane B2 = assay: Thromboxane B2 in mouse blood plasma after carrageenan injection; type: in vivo; settings: 320 min after carrageenan; LPS control 358.240
# Method: (§1) […] We tested the influence of yeast RNA on the activity of NO-synthetase ferment (NOS) in blood plasma and in erythrocytes, as well as on the content in blood plasma of free arachidonic acid and products of its oxide metabolism, carried out in lypoxygenase (leukotriene C4 (LTC4)) and cyclooxygenase (thromboxane B2 (T×B2)) ways.
# (§2) The content of free arachidonic acid (AA) was measured by two-dimensional thin-layer chromatography (TLC) as discussed in Tsunamoto et al. (Tsunamoto K., Todo S., Imashuku S. Separation of prostaglandines and thromboxane by two-dimensional thin-layer chromatography. J. Chromatog. 3; 417(2); 414–419; 1987. The content of stable metabolite of thromboxane A2 (TXB2) was studied in probes by radio-immune method with TXB2 [^3H] RIA Kit, by Amersham International PLC (England) (McCann D. S., Tokarsky J., Sorkin R. P., Radioimmunoassay for plasma thromboxane B2. Clin. Chem., 27(8): 1417–1420, 1981). The content of LTC4 was tested in probes by radio-immune method with LTC4 [^3H] RIA Kit by Du Pont Ltd. Hertfordshire, (UK) (Levine L., Morgan R. A., Levis R. A. et al., Radioimmunoassay of the leukotrienes of slow reactivity substance of anaphylaxis. Proc. Natl. Acad. Sci. USA. 78(12): 7692–7696; 1981).
# NO-synthetase (NOS) [2] = assay: NOS activity in mouse erythrocytes after carrageenan injection; type: in vivo; settings: 320 min after carrageenan; LPS control 2.232
# Method: as §1
# (§3) The activity in blood plasma and erythrocytes of the enzyme NO-synthetase was measured by colometric method applied to the outcome of reaction, nitrite anion. (Yan L., Vandivier R. W., Suffredini A. F., Danner R. L., Human polymorphonuclear leukocytes lack detectable nitric oxide synthetase activity. J. Immunol., 15; 153(4): 1825–1834; 1994). […] The reaction was initiated by adding 0.1 ml of a probe containing 500 microgram of general protein determined by Bredford method. […]
# (§4) Nitrite anion was determined using the reagent of Gris in colometric reaction as decribed in Green et al. (Green L. C., Waagner D. A., Glogowski J. et al., Analysis of nitrate, nitrite and [15N] nitrate in biological fluids, Anal. Biochem., 126(1): 131–138;1982). […] In 5 minutes after mixing, the extinction at 543 hm was measured. The quantity of NO2 was measured by standard curve built for NaNO2.
# free arachidonic acid = assay: Free arachidonic acid in mouse blood plasma after carrageenan injection; type: in vivo; settings: 320 min after carrageenan; LPS control 3.37
# Method: as §1, §2
# myeloperoxydase = assay: Myeloperoxydase activity in the ischemized part of myocardium; type: in vivo, rats; settings: 30 minutes occlusion, 1 hour reperfusion; control 211.8+16.7
# Source text: The mieloperoxydase activity (MPA) was studied in myocardium using the method of Bradley et al. (Bradley P. P., Priebet D. A., Christensen R. D. et al., Measurement of cutateous inflammation: estimation of neutrophil content with an enzyme marker, J. Invest. Dermatol., 78(3): 206–209; 1982) in the modification by Grisfwold et al. (Griswold D. E., Hillegass L. M., Hill D. E. et al., Method for quantification of myocardial infarction and inflammatory cell infiltration in rat cardial tissue, J. Pharmacol. Methods, 20(3): 225–235, 1988). For this purpose, the heart was extracted and rinsed in physiological solution, which was cooled to 0° C. After rinsing, a section of myocardium (1 g of the tissue) in the central zone of ischemia was cut out and frozen to −30° C. The final fraction was prepared as a 10% haemogenate with extractive buffer containing 0.5% hexadecyltrimethyl ammonium bromide (pH 6.0) at room temperature. […]
# The upper fraction (30 microliters) was used for a reaction with 0.167 mg/ml of O-dianisodine in 50 millimole/l of potassium phosphate buffer (pH 6.0). […] The reaction had been continuously tested for 5 minutes at 460 hm wave length, and with readings taken every minute. A chart indicating the readings was prepared. A unit of MPA was defined as the quantity of ferment, which destroys 1 micromole/min H2O2 at 25° C. The data was calculated as MPA per 1 gram of tissue. […]
# NO-synthetase (NOS) [3] = assay: NOS activity in mouse blood plasma after carrageenan injection; type: in vivo; settings: 320 min after carrageenan; LPS control 110.48
# Method: as §1, §3, §4
# human thrombocytes = assay: Aggregation of thrombocytes induced by arachidonic acid in vitro; type: cell-based; settings: Table 2; 0.06 mg per tube
# Method: We studied the anti-inflammatory action of nucleic acids on the model of thrombocyte aggregation in vitro by the method of Born (Born L.V.R. The aggregation of blood platelets by diphosphate and its reversal, Nature, […], P. 327, 1962). Venous human blood was taken in silicon tubes of Becton Dickson, which contained a 3.8% solution of sodium citrate. In order to receive thrombocytic-rich plasma, citrate blood was centrifuged at 1500 rev/mm for 7 minutes. Plasma free of thrombocytes was obtained by centrifuging 2.0 ml of plasma taken from medium layers for 15 minutes at 3000 rev/mm. We counted the number of thrombocytes in the thrombocytic-containing plasma, which was later diluted by the thrombocyte-free plasma to the final concentration […].
# An Aggregometer produced by “Tromlite” (Poland) was used for thrombocyte aggregation. In order to induce aggregation, arachidonic acid was diluted in Michaelis buffer in the proportion 1 mg/ml. Two tubes were inserted in the aggregometer, one of which contained 0.2 ml of thrombocyte-containing plasma, while the other one had 0.2 ml of thrombocyte-free plasma and 0.1 ml of isotonic solution of sodium chloride. […] Then, the light-transparency of thrombocyte-containing plasma was measured during 5 minutes, which indicated the stage of thrombocyte aggregation. […]
smiles,measurement,setting,value
"CC(=O)Oc1ccccc1C(=O)O [Aspirin, aspirin]",content of leukotriene C4 in blood plasma,leukotriene C4,93.99 picomol per 1 mg of protein
same,% inhibition of swelling,[1],18.03%
same,% inhibition of swelling,[1]; listed as aspirin,18.03%
same,increase of mass of the swollen leg,"[1]; 0.4 mg per mouse intra-abdominally, 4 hours after carrageenan, Control + LPS 43.31",35.5 +
same,content of thromboxane B2 in blood plasma,thromboxane B2,153.903 picomol per 1 mg of protein
same,"activity of NOS in erythrocytes, M",NO-synthetase (NOS) [2],3.613 picomol per 1 min per 1 mg of protein
same,content of free arachidonic acid in blood plasma,free arachidonic acid,2.64 nanomol per 1 mg of protein
same,activity of myeloperoxydase in ischemized myocardium,myeloperoxydase,176.1+5.9 units per 1 g of tissue
same,"activity of NOS in blood plasma, M",NO-synthetase (NOS) [3],42.24 picomol per 1 min per 1 mg of protein
same,"inhibition of thrombocyte aggregation (index of aggregation), M",human thrombocytes,38.66%
